The record followed here is US9445594B2, “Molecules having certain pesticidal utilities, intermediates, compositions, and processes, related thereto” (priority 2014, dated 2016).

Common to all, as to type: in vivo
In data set [1] the test system is Green Peach Aphid (Myzus persicae, MYZUPE) ("GPA"). Briefly: Bioassays on GPA, foliar spray of infested cabbage seedlings. As to conditions: 72 h, 200 ppm spray on cabbage seedlings, graded after three days, Abbott corrected % control, read-out: GPA % Control (or Mortality) rating. As for the experimental part:
Certain molecules disclosed in this document were tested against GPA using procedures described in the following example. In the reporting of the results, the “GPA Rating Table” was used (See Table Section).
Cabbage seedlings grown in 3-inch pots, with 2-3 small (3-5 cm) true leaves, were used as test substrate. The seedlings were infested with 20-50 GPA (wingless adult and nymph stages) one day prior to chemical application. Four pots with individual seedlings were used for each treatment. Test compounds (2 mg) were dissolved in 2 mL of acetone/methanol (1:1) solvent, forming stock solutions of 1000 ppm test compound. The stock solutions were diluted 5× with 0.025% Tween 20 in water to obtain the solution at 200 ppm test compound. A hand-held aspirator-type sprayer was used for spraying a solution to both sides of […] leaves until runoff. Reference plants (solvent check) were sprayed with the diluent only containing 20% by volume of acetone/methanol (1:1) solvent. Treated plants were held in a holding room for three days at approximately 25° C. and ambient relative humidity (RH) prior to grading. Evaluation was conducted by counting the number of live aphids per plant under a microscope. Percent Control was measured by using Abbott's correction formula (W. S. Abbott, “A Method of Computing the Effectiveness of an Insecticide” J. Econ. Entomol. 18 (1925), pp. 265-267) as follows. Corrected % Control=100*(X−Y)/X • where • X=No. of live aphids on solvent check plants and • Y=No. of live aphids on treated plants

Data set [2] concerns Beet Armyworm (Spodoptera exigua, LAPHEG) ("BAW"). The experiment in a line: Bioassays on BAW, 128-well diet tray assay. As to conditions: 168 h, second instar larvae, 50 μg/cm^2 on artificial diet, 25° C., five to seven days, average of eight wells, read-out: BAW % Control (or Mortality) rating. In a few lines:
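One to five second-instar larvae were placed per well on artificial diet surface-treated with 50 μg/cm^2 compound from 90:10 acetone-water, dried before infestation. Trays were held at 25 °C, 14:10 light-dark, for five to seven days. Percent mortality was averaged over eight wells.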

The test system of data set [3] is Yellow Fever Mosquito (Aedes aegypti, AEDSAE) ("YFM"). Briefly: Bioassays on YFM, 96-well plate larval assay. As to conditions: about 1 day-old larvae, from 4000 ppm DMSO master plate diluted, room temperature, scored after 3 days. A digest of the protocol:
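Compounds from 4000 ppm DMSO master plates, diluted in 90:10 water:acetone, dispensed into 96-well plates, six replicates. About 1-day-old larvae added in liver-powder water. Wells covered, held 3 days at room temperature, then scored for mortality.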

The subject of data set [4] is Cabbage Looper (Trichoplusia ni, TRIPNI) ("CL"). The experiment in a line: Bioassays on CL, 128-well diet tray assay. The note with it: 168 h, second instar larvae, 50 μg/cm^2 on artificial diet, 25° C., five to seven days, average of eight wells, read-out: CL % Control (or Mortality) rating. A digest of the protocol: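 Second-instar larvae (one to five per well) on artificial diet surface-treated with 50 μg/cm^2 compound in 90:10 acetone-water, eight wells per treatment. Held at 25° C., 14:10 light-dark for five to seven days. Percent mortality scored per well and averaged over the eight wells.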

`CCc1ccccc1-c1ccccc1NC(=S)Nc1ccc(-c2ncn(-c3ccc(OC(F)(F)F)cc3)n2)cc1` [F4, 1-(2′-Ethyl-[1,1′-biphenyl]-2-yl)-3-(4-(1-(4-(trifluoromethoxy)phenyl)-1H-1,2,4-triazol-3-yl)phenyl)thiourea]: the mortality – broadly, the percentage killed – at 200 ppm in data set [1] was determined as 0%. The mortality at 50 µg/cm2 in data set [2] and in data set [4] was 50 to 100% throughout. For the same compound, the “YFM % Control (or Mortality) rating” value in data set [3] is reported as “A (80-100)”.
Consider `C#Cc1ccccc1NC(=O)Nc1ccc(-c2ncn(-c3ccc(OC(F)(F)F)cc3)n2)cc1` [F5, 1-(2-Ethynylphenyl)-3-(4-(1-(4-(trifluoromethoxy)phenyl)-1H-1,2,4-triazol-3-yl)phenyl)urea], for which, in data set [1], the mortality at 200 ppm came out at 0%. The mortality at 50 µg/cm2 in data set [2] and in data set [4] was 50 to 100% in each case. Moreover, the “YFM % Control (or Mortality) rating” value in data set [3] is given as “D (No activity noticed in this bioassay)”.
For `CC(C)c1ccccc1N(C(=O)Nc1ccc(-c2ncn(-c3ccc(OC(F)(F)F)cc3)n2)cc1)C(N)=S` [F6, N-[2-(Propan-2-yl)phenyl]-N-(4-{1-[4-(trifluoromethoxy)phenyl]-1H-1,2,4-triazol-3-yl}phenyl)dicarbonimidothioic diamide], in data set [1], the mortality at 200 ppm was 0 to 80%. Moreover, the mortality at 50 µg/cm2 in data set [2] and in data set [4] was 50 to 100% each time. In data set [3], the “YFM % Control (or Mortality) rating” value is “A (80-100)”.
For `Cc1ccccc1-c1cccnc1NC(=S)Nc1ccc(-c2ncn(-c3ccc(OC(F)(F)F)cc3)n2)cc1` [F11, 1-(3-(o-Tolyl)pyridin-2-yl)-3-(4-(1-(4-(trifluoromethoxy)phenyl)-1H-1,2,4-triazol-3-yl)phenyl)thiourea], the mortality at 200 ppm in data set [1] was in the range of 0 to 80%. Further, the mortality at 50 µg/cm2 in data set [2] was 50 to 100%. For the same compound, the “YFM % Control (or Mortality) rating” value in data set [3] is reported as “D (No activity noticed in this bioassay)”.
With `CCc1ccccc1-c1cccnc1NC(=O)Nc1ccc(-c2ncn(-c3ccc(OC(F)(F)F)cc3)n2)cc1` [F16, 1-(3-(2-Ethylphenyl)pyridin-2-yl)-3-(4-(1-(4-(trifluoromethoxy)phenyl)-1H-1,2,4-triazol-3-yl)phenyl)urea], the mortality at 200 ppm in data set [1] was 0 to 80%. Also, the mortality at 50 µg/cm2 in data set [2] and in data set [4] was 50 to 100% in each case. Also, the “YFM % Control (or Mortality) rating” value in data set [3] is “D (No activity noticed in this bioassay)”.
Consider `CC(C)CC(C)c1ccccc1NC(=O)Nc1ccc(-c2ncn(-c3ccc(OC(F)(F)F)cc3)n2)cc1` (stereo not shown) [F18, 1-(2-(4-methylpentan-2-yl)phenyl)-3-(4-(1-(4-(trifluoromethoxy)phenyl)-1H-1,2,4-triazol-3-yl)phenyl)urea], for which, in data set [1], the mortality at 200 ppm is 0%. The mortality at 50 µg/cm2 in data set [2] and in data set [4] was 50 to 100% in each case. Moreover, in data set [3], the “YFM % Control (or Mortality) rating” value is reported as “D (No activity noticed in this bioassay)”.
`CCc1ccccc1-c1cccnc1NC(=S)Nc1ccc(-c2ncn(-c3ccc(OC(F)(F)F)cc3)n2)cc1` [F20, 1-(3-(2-Ethylphenyl)pyridin-2-yl)-3-(4-(1-(4-(trifluoromethoxy)phenyl)-1H-1,2,4-triazol-3-yl)phenyl)thiourea]: in data set [1], the mortality at 200 ppm was in the range of 0 to 80%. Besides, the mortality at 50 µg/cm2 is 0 to 50% in data set [2] and 50 to 100% in data set [4]. Moreover, the “YFM % Control (or Mortality) rating” value in data set [3] was “D (No activity noticed in this bioassay)”.
The corresponding values for `CSc1ccccc1-c1cccnc1NC(=S)Nc1ccc(-c2ncn(-c3ccc(OC(F)(F)F)cc3)n2)cc1` [F22, 1-(3-(2-(Methylthio)phenyl)pyridin-2-yl)-3-(4-(1-(4-(trifluoromethoxy)phenyl)-1H-1,2,4-triazol-3-yl)phenyl)thiourea] are 0 to 80%, 0 to 50%, 50 to 100% and “D (No activity noticed in this bioassay)”.
The like results for `CC(C)c1ccccc1-c1ccccc1NC(=S)Nc1ccc(-c2ncn(-c3ccc(OC(F)(F)F)cc3)n2)cc1` [F28, 1-(2′-isopropyl-[1,1′-biphenyl]-2-yl)-3-(4-(1-(4-(trifluoromethoxy)phenyl)-1H-1,2,4-triazol-3-yl)phenyl)thiourea] were, in that order, 0 to 80%, 0 to 50%, 50 to 100% and “D (No activity noticed in this bioassay)”.
For the compound `O=C(Nc1ccc(-c2ncn(-c3ccc(OC(F)(F)F)cc3)n2)cc1)Nc1ccccc1-c1ccccc1` [F31, 1-([1,1′-biphenyl]-2-yl)-3-(4-(1-(4-(trifluoromethoxy)phenyl)-1H-1,2,4-triazol-3-yl)phenyl)urea], in data set [1], the mortality at 200 ppm fell in the range of 0 to 80%. The mortality at 50 µg/cm2 in data set [2] and in data set [4] was 50 to 100% throughout. In data set [3], the “YFM % Control (or Mortality) rating” value was “A (80-100)”.
Take `CCc1ccccc1-c1ccccc1NC(=O)Nc1ccc(-c2ncn(-c3ccc(OC(F)(F)F)cc3)n2)cc1` [F35, 1-(2′-Ethyl-[1,1′-biphenyl]-2-yl)-3-(4-(1-(4-(trifluoromethoxy)phenyl)-1H-1,2,4-triazol-3-yl)phenyl)urea]: the mortality at 200 ppm in data set [1] came out at 0%. In addition, the mortality at 50 µg/cm2 in data set [2] and in data set [4] was 50 to 100% each time. In addition, the “YFM % Control (or Mortality) rating” value in data set [3] is recorded as “A (80-100)”.
For the compound `Fc1ccc(NC(=S)Nc2ccc(-c3ncn(-c4ccc(OC(F)(F)F)cc4)n3)cc2)cc1` [F72, 1-(4-Fluorophenyl)-3-(4-(1-(4-(trifluoromethoxy)phenyl)-1H-1,2,4-triazol-3-yl)phenyl)thiourea], the mortality at 200 ppm in data set [1] is 0%. For the same compound, the mortality at 50 µg/cm2 in data set [2] was 50 to 100%. The “YFM % Control (or Mortality) rating” value in data set [3] is given as “B (More than 0 - Less than 80)”.
For `COc1ccccc1NC(=O)NCc1ccc(-c2ncn(-c3ccc(OC(F)(F)F)cc3)n2)cc1` [F106, 1-(2-Methoxyphenyl)-3-(4-(1-(4-(trifluoromethoxy)phenyl)-1H-1,2,4-triazol-3-yl)benzyl)urea], the mortality at 50 µg/cm2 in data set [2] and in data set [4] was 0% each time. For the same compound, the “YFM % Control (or Mortality) rating” value in data set [3] is listed as “D (No activity noticed in this bioassay)”.
As to `COc1cccc(NC(=O)NCc2ccc(-c3ncn(-c4ccc(OC(F)(F)F)cc4)n3)cc2)c1` [F107, 1-(3-Methoxyphenyl)-3-(4-(1-(4-(trifluoromethoxy)phenyl)-1H-1,2,4-triazol-3-yl)benzyl)urea], the mortality at 50 µg/cm2 in data set [2] and in data set [4] was 0% in each case. Moreover, in data set [3], the “YFM % Control (or Mortality) rating” value is “B (More than 0 - Less than 80)”.
`Cc1cccc(NC(=O)NCc2ccc(-c3ncn(-c4ccc(OC(F)(F)F)cc4)n3)cc2)c1` [F108, 1-(m-Tolyl)-3-(4-(1-(4-(trifluoromethoxy)phenyl)-1H-1,2,4-triazol-3-yl)benzyl)urea]: the mortality at 50 µg/cm2 in data set [2] and in data set [4] was 0% each time. The “YFM % Control (or Mortality) rating” value in data set [3] was “D (No activity noticed in this bioassay)”.
For `COc1ccc(NC(=O)NCc2ccc(-c3ncn(-c4ccc(OC(F)(F)F)cc4)n3)cc2)cc1` [F109, 1-(4-Methoxyphenyl)-3-(4-(1-(4-(trifluoromethoxy)phenyl)-1H-1,2,4-triazol-3-yl)benzyl)urea], the mortality at 50 µg/cm2 in data set [2] and in data set [4] was 0% throughout. In addition, the “YFM % Control (or Mortality) rating” value in data set [3] is given as “D (No activity noticed in this bioassay)”.
